This is an account of results in US20240294511A1, “SOLID FORM OF INDOLE COMPOUND, PREPARATION METHOD THEREFOR AND USE THEREOF” (KEYTHERA (SUZHOU) BIO-PHARMACEUTICALS CO., LIMITED, priority 2021, published 2024).

One data set is described as follows: High temperature test. The class given is physicochemical. Conditions: 60° C. Here is the method: Crystalline form II of the compound of Formula (1) was placed at a high temperature of 60° C. for 30 days. Samples were taken at 0, 5, 10, and 30 days, respectively, to observe changes in sample characteristics, measure specific rotation with a polarimeter, test for drying loss, measure the total impurity content by HPLC, and measure the XRPD patterns of the samples.

A short description of a further data set: Light exposure test. The class given is physicochemical. Here is the method:
Crystalline form II of the compound of Formula (1) was placed under conditions of light intensity not less than 1.2×10^6 Lux·hr, with near-ultraviolet energy not less than 200 w·hr/m^2, at 25° C., RH 25% for 30 days. Samples were taken at 0, 5, 10, and 30 days, respectively, to observe changes in sample characteristics, test for drying loss, measure the total impurity content by HPLC, and measure the XRPD patterns of the samples.

A further data set can be described thus: High humidity test. The class given is physicochemical. Here is the method: Crystalline form II of the compound of Formula (1) was placed at 25° C. and 92.5% high humidity for 30 days. Samples were taken at 0, 5, 10, and 30 days, respectively, to observe changes in sample characteristics, test for drying loss, measure the total impurity content by HPLC, and measure the XRPD patterns of the samples.

The next data set can be described thus: Mechanical grinding test. The class given is physicochemical. The following applies: 0.5 g ground in a mortar for about 5 minutes. On the procedure:
(§1) The solid samples obtained in the examples were analyzed for crystalline form using a PANalytical EMPYREAN equipped with a PIXceI^1D detector. The instrument parameters are as follows: scanning range: 3° (2θ) to 40° (2θ); step size: 0.013° (2θ); tube voltage and current are 45 KV and 40 mA, respectively.
0.5 g of crystalline form II was placed in a mortar and ground for about 5 minutes, then the solid was collected for XRPD testing.

The nature of another data set: Solid stability test. The following applies: for Purity - Day 7: 7 days. In kind it is physicochemical. Here is the method: as §1
The HPLC measurements were performed using an Agilent HPLC 1260 series instrument.
Crystalline form II was stored separately at a sealed condition at 60° C. and at 40° C./75% RH for 7 days. The purity of the samples was determined by HPLC before and after storage, and the XRPD patterns were measured.

Data set [1] can be described thus: Crystalline form transformation test (heating). In kind it is physicochemical. The following applies: slowly heated to 200° C., then cooled to room temperature. Here is the method:
as §1
Crystalline form IV was slowly heated to 200° C. and then cooled to room temperature. Samples before and after heating were collected for XRPD testing.

Data set [2] is described as follows: Pharmacokinetic test in beagle dogs. In kind it is in vivo. The following applies: dog, blood. Here is the method:
A clear solution of crystalline form II of the compound of Formula (1) was prepared in 10% DMSO, 60% PEG 400, and 30% water for injection and administered intravenously to beagle dogs. An aqueous suspension of crystalline form II of the compound of Formula (1) in 0.5% sodium carboxymethylcellulose (CMC·Na) was prepared and administered orally to beagle dogs to investigate its pharmacokinetic characteristics.

Data set [3] in a line: Pharmacokinetic test in SD rats. In kind it is in vivo. The following applies: rat, blood. Here is the method: A clear solution of crystalline form II of the compound of Formula (1) was prepared in 10% DMSO, 60% PEG 400, and 30% water for injection and administered intravenously to SD rats. An aqueous suspension of crystalline form II of the compound of Formula (1) in 0.5% sodium carboxymethylcellulose (CMC·Na) was prepared and administered orally to SD rats to investigate its pharmacokinetic characteristics.

The term clearance denotes a measure of how efficiently the substance is removed, as volume per time.

Consider `O=C(NC1(C23CC(C(=O)O)(C2)C3)CC1)c1cccc2ccn(Cc3cc4ccccc4o3)c12` [Crystalline form II, 3-(1-(1-(benzofuran-2-ylmethyl)-1H-indole-7-carboxamido)cyclopropyl)bicyclo[1.1.1]pentane-1-carboxylic acid], for which, in the data set “High temperature test”, the “stability under high-temperature conditions” value is reported as “stable”. The “differences in appearance, moisture, content and crystalline form compared to day 0” value in “High temperature test” (30 days) is recorded as “no significant differences”; in “High humidity test” (25° C., 92.5% RH, 30 days), “no significant differences”. The new impurities formed is no more than 0.05% in “High temperature test” (30 days, HPLC); no more than 0.05% in “Light exposure test” (light exposure, 30 days, HPLC); no more than 0.05% in the data set “High humidity test” (25° C., 92.5% RH, 30 days, HPLC). For the same molecule, the “crystalline form (XRPD)” value in “Light exposure test” (light exposure, 30 days) is reported as “did not change”. Also, in the data set “Light exposure test” (light not less than 1.2×10^6 Lux·hr, near-UV not less than 200 w·hr/m^2, 25° C., RH 25%, 30 days), the “changes in moisture and content compared to day 0” value is given as “no significant changes”. Moreover, the “stability under light exposure conditions” value in “Light exposure test” (total illumination not less than 1.2×10^6 Lux·hr, near-UV not less than 200 w·hr/m^2) is recorded as “stable”. The same molecule came in with a water absorption in “High humidity test” (25° C., 92.5% RH, 30 days) of 0.03%. The “stability under high humidity conditions” value in the data set “High humidity test” (RH 92.5%) is recorded as “stable”. The “crystalline form after grinding (XRPD)” value in the data set “Mechanical grinding test” is “remained unchanged”. Moreover, the “Purity - Day 7” value in the data set “Solid stability test” (HPLC, 40° C./75% RH) was determined as 99.4 Area %; in the data set “Solid stability test” (HPLC, sealed condition at 60° C.), 99.6 Area %. Further, in the data set “Solid stability test” (HPLC, before storage), the “Purity at the beginning” value stood at 99.4 Area %. Further, in “Solid stability test” (sealed at 60° C. and at 40° C./75% RH for 7 days), the “crystalline form after storage (XRPD)” value is recorded as “remained unchanged”.
`O=C(NC1(C23CC(C(=O)O)(C2)C3)CC1)c1cccc2ccn(Cc3cc4ccccc4o3)c12` [Crystalline form IV, 3-(1-(1-(benzofuran-2-ylmethyl)-1H-indole-7-carboxamido)cyclopropyl)bicyclo[1.1.1]pentane-1-carboxylic acid]: in data set [1], the “crystalline form after heating (XRPD)” value is given as “transformed into crystalline form II”.
With `O=C(NC1(C23CC(C(=O)O)(C2)C3)CC1)c1cccc2ccn(Cc3cc4ccccc4o3)c12` [compound of Formula (1), 3-(1-(1-(benzofuran-2-ylmethyl)-1H-indole-7-carboxamido)cyclopropyl)bicyclo[1.1.1]pentane-1-carboxylic acid], the clearance in data set [2] (single intravenous 5 mg/kg, read-out: clearance (CL)) turned out to be 0.398 L/h/kg; in data set [3] (single intravenous 15 mg/kg, read-out: clearance (CL)), 0.215 L/h/kg. The Vd is 1.5 L/kg in data set [2] (single intravenous 5 mg/kg, read-out: steady-state apparent volume of distribution (Vss)) and 1.18 L/kg in data set [3] (single intravenous 15 mg/kg, read-out: steady-state apparent volume of distribution (Vss)). Besides, the AUC(0-t) in data set [2] (single intravenous 5 mg/kg, solution of crystalline form II in 10% DMSO, 60% PEG 400, 30% water, read-out: drug exposure (AUC0-t)) stood at 12.6 µg·h/mL; in data set [2] (single oral 45 mg/kg, suspension of crystalline form II in 0.5% CMC·Na, read-out: exposure (AUC0-t)), 79.6 µg·h/mL; in data set [3] (single intravenous 15 mg/kg, solution of crystalline form II in 10% DMSO, 60% PEG 400, 30% water, read-out: drug exposure (AUC0-t)) it was 78.8 µg·h/mL; in data set [3] (single oral 40 mg/kg, suspension of crystalline form II in 0.5% CMC·Na, read-out: exposure (AUC0-t)), 153 µg·h/mL. Further, the Cmax in data set [2] (single oral 45 mg/kg, suspension of crystalline form II in 0.5% CMC·Na, read-out: maximum blood drug concentration (Cmax)) is 32.9 µg/mL; in data set [3] (single oral 40 mg/kg, suspension of crystalline form II in 0.5% CMC·Na, read-out: maximum blood drug concentration (Cmax)), 27.7 µg/mL.
